Results: PMC5513871 (British Journal of Pharmacology, 2017)
Read-outs that look alike come from different tables or passages of the source.

Columns and labels:
[1] = system: normal dogs under anaesthesia; details: 1 μmol/kg/min; ref Roza and Berman, 1971; cited from earlier work
[2] = system: IK1; details: read-out: IC50 IK1; ref Filgueiras‐Rama et al., 2012; cited from earlier work
[3] = system: IKACh; details: read-out: IC50 IKACh; ref Filgueiras‐Rama et al., 2012; cited from earlier work
[4] = system: IKATP; details: read-out: IC50 IKATP; ref Filgueiras‐Rama et al., 2012; cited from earlier work
[5] = system: Langendorff‐perfused sheep heart; details: ref Noujaim et al., 2011; cited from earlier work
[6] = system: AF goat model; details: cited from earlier work
[7] = system: cAVB dogs; experiment: Proarrhythmia test; type: in vivo, dog; details: cAVB dogs n = 9, paced 1 Hz; PA‐6 2.5 mg/kg/10 min, dofetilide 0.025 mg/kg/5 min
[8] = system: anaesthetized SR dogs; details: 4 mg/kg/40 min, at 40 min; ref Yokoyama et al. (2009); cited from earlier work
[9] = awake goats, 1 week of AF, ref Eijsbouts et al., 2006
[10] = awake goats, 4 weeks of AF, ref Eijsbouts et al., 2006
[11] = awake goats, 8 weeks of AF, ref Eijsbouts et al., 2006
[12] = awake goats, 16 weeks of AF, ref Eijsbouts et al., 2006

[Ba+2].[Cl-].[Cl-] [BaCl2]
Course of events upon infusion [1]: hypotension, flaccid paralysis of skeletal muscles, ventricular tachycardia and fibrillation

CCN(CC)CCCC(C)Nc1ccnc2cc(Cl)ccc12 (stereo not shown) [chloroquine]
IC50 [2]: 690 nM
IC50 [3]: 380 nM
IC50 [4]: 510 nM
Concentration terminating cholinergically induced AF [5]: 10 µM

c1ccc(C2(c3ccccc3)CC2C2=NCCN2)cc1 (stereo not shown) [cibenzoline]
Cardioversion rate ([6]; 3 to 4 weeks of pacing induced persistent AF, ref Eijsbouts et al., 2006): 78%
Cardioversion rate [6, 9]: 80%
Cardioversion rate [6, 10]: 78%
Cardioversion rate [6, 11]: 67%
Cardioversion rate [6, 12]: 63%

CN(CCOc1ccc(NS(C)(=O)=O)cc1)CCc1ccc(NS(C)(=O)=O)cc1 [dofetilide]
LVMAPD80 [7]: 400 ± 64 ms
QTc [7]: 600 ± 33 ms
STV [7]: 1.82 ± 0.88 ms

CC(C)NC[C@@H](O)c1ccc(NS(C)(=O)=O)cc1 [d‐Sotalol]
Cardioversion rate ([6]; 3 to 4 weeks of pacing induced persistent AF, ref Wijffels et al., 1999): 92%

O=C(NCC1CCCCN1)c1cc(OCC(F)(F)F)ccc1OCC(F)(F)F (stereo not shown) [flecainide]
Cardioversion rate [6, 9]: 60%
Cardioversion rate [6, 10]: 33%
Cardioversion rate [6, 11]: 33%
Cardioversion rate [6, 12]: 17%

N=C(N)c1ccc(OCCCCCOc2ccc(C(=N)N)cc2)cc1 [pentamidine]
QTc increase [8]: approx. 8%
